The term Ki denotes the equilibrium dissociation constant of an inhibitor or competing ligand from its target.

The results in this text go back to paper PMC8027256, “Epigallocathechin-O-3-Gallate Inhibits Trypanothione Reductase of Leishmania infantum, Causing Alterations in Redox Balance and Leading to Parasite Death” (Frontiers in Cellular and Infection Microbiology, 2021).

This experiment addresses T1, trypanothione reductase (TR; LiTR) (Leishmania infantum, UniProt A4HSF7).
T1 construct: gene TRYR; Full-length LiTR with carboxy-terminal six-histidine tag (LiTR.6His), expressed in E. coli
Description: DTNB-coupled trypanothione reductase assay with purified recombinant enzyme; Lineweaver-Burk and Dixon plot analysis (IC50 […] also reported). In kind it is biochemical.

T1 sequence (A4HSF7 1-491): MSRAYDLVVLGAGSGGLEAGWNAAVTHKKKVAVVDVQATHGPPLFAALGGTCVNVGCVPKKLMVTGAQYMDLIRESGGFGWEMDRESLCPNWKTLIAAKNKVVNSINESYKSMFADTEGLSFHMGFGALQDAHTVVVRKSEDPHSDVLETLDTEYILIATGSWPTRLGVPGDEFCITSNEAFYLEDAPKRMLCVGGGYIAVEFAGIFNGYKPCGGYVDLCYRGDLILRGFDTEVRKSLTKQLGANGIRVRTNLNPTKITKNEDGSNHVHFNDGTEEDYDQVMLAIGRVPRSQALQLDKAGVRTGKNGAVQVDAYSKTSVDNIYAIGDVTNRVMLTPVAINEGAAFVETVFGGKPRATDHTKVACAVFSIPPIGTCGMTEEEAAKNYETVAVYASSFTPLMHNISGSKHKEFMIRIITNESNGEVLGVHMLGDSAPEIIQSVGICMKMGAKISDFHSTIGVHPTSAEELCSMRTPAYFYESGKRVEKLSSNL

With `O=C(O[C@@H]1Cc2c(O)cc(O)cc2O[C@@H]1c1cc(O)c(O)c(O)c1)c1cc(O)c(O)c(O)c1` [(-)-Epigallocatechin 3-O-gallate], the Ki was found to be 294 ± 66.3 µM.
